How the values were obtained:
[1] = system: S. thyphimurium; test: MIC, resazurin broth microdilution; assay type: cell-based, Salmonella thyphimurium; conditions: media MH
[2] = system: E. coli; test: MIC, resazurin broth microdilution; assay type: cell-based, Escherichia coli; conditions: media LB
[3] = system: S. aureus; test: MIC, resazurin broth microdilution; assay type: cell-based, Staphylococcus aureus; conditions: media MH
[4] = system: C. glutamicum; test: MIC, resazurin broth microdilution; assay type: cell-based, Corynebacterium glutamicum; conditions: media BHI
[5] = system: C. ammoniagenes; test: MIC, resazurin broth microdilution; assay type: cell-based, Corynebacterium ammoniagenes; conditions: C. ammoniagenes
[6] = system: L. monocytogenes; test: MIC, resazurin broth microdilution; assay type: cell-based, Listeria monocytogenes; conditions: media BHI
[7] = system: S. pneumoniae; test: MIC, resazurin broth microdilution; assay type: cell-based, Streptococcus pneumoniae
[8] = system: C. diphteriae; test: MIC, resazurin broth microdilution; assay type: cell-based, Corynebacterium diphteriae
[9] = system: P. aeruginosa; test: MIC, resazurin broth microdilution; assay type: cell-based, Pseudomonas aeruginosa; conditions: media MH
[10] = system: M. smegmatis; test: MIC, resazurin broth microdilution; assay type: cell-based, Mycobacterium smegmatis; conditions: media 7H9G-ADC
[11] = system: M. tuberculosis; test: MIC, resazurin broth microdilution; assay type: cell-based, Mycobacterium tuberculosis; conditions: M. tuberculosis, media 7H9G-ADC
[12] = target: T1, CaFADS (Corynebacterium ammoniagenes, UniProt Q59263); test: Differential scanning fluorescence (thermal denaturation) binding to CaFADS; conditions: 2 μM CaFADS, compound up to 250 μM
T1 construct: made in house; host or cells: Escherichia coli BL21(DE3)
Procedure: Interaction of compounds with CaFADS was evaluated using fluorescence thermal denaturation, on the bases of the shifts in denaturation midpoints of thermal curves of the protein [65]. Denaturations were performed in a Stratagene Agilent Mx3005p qPCR instrument (Santa Clara, US) following SYPR Orange (ThermoFisher Scientific) emission fluorescence (excitation at 492 nm and emission at 610 nm), which greatly increases when this probe binds to protein hydrophobic regions becoming solvent exposed upon thermal unfolding. Solutions containing 2 μM CaFADS with the studied compound in an increasing 5-250 μM concentration range (2% residual final concentration of DMSO) and 5xSYPR Orange in 20 mM PIPES pH 7.0, 10 mM MgCl2, with a 100 μL total volume were dispensed into 96-well microplates (BRAND 96-well plates pure grade™). After an initial 1 min incubation at 25 °C within the equipment, unfolding curves were registered from 25 to 100 °C at 1 °C·min^−1. Control experiments with CaFADS samples with/without DMSO were routinely performed in each microplate. For those compounds shifting midpoint denaturation temperature, Tm, the dissociation constant, Kd, was predicted by fitting the data to the equation [66] ΔTm/Tm=NRTm0/ΔH0ln(1+[L]/Kd), (2) which estimates the extent of the ligand-induced protein stabilization/destabilization. ΔTm=|Tm-Tm0| with Tm0 and Tm being the midpoint denaturation temperatures in the absence and the presence of ligand, respectively, and ΔH0 the unfolding enthalpy of the protein in the absence of ligand.

T1 sequence (Q59263 whole entry): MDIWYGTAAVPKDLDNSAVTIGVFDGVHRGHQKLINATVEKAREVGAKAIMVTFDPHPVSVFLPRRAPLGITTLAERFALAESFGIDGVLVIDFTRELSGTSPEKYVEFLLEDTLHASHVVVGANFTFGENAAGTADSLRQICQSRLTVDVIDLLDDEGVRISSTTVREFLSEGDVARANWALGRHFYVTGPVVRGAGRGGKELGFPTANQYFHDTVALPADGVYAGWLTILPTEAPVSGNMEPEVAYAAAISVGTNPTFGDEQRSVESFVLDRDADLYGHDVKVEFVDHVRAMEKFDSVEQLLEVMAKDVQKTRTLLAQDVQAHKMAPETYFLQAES

O=C(O)CC(CC(=O)Nc1ccc2ccccc2n1)c1ccccc1 (centres unmarked) [Compound C4, 5-oxo-3-phenyl-5-(2-quinolinylamino)pentanoic acid] was tested. Which MIC [1] did it give?
The MIC was > 256 µM.

What about the MIC [2] of the same compound?
The MIC was > 64 µM.

What about the MIC [3] of the same compound?
Its MIC is > 256 µM.

What about the MIC [4] of the same compound?
The MIC was > 64 µM.

What about the MIC ([5]; media BHI) of the same compound?
The MIC was > 64 µM.

And the MIC ([5]; media MH)?
The MIC was > 256 µM.

And the MIC ([5]; media MH+DFO)?
Its MIC is > 256 µM.

What about the MIC ([5]; media MH+DIP) of the same compound?
Its MIC is > 256 µM.

And the MIC ([5]; media MH+DIP+DFO)?
The MIC was > 256 µM.

And the MIC [6]?
The MIC was > 64 µM.

What about the MIC ([7]; media BHI) of the same compound?
The MIC was > 256 µM.

And the MIC ([7]; media MH)?
Its MIC is > 256 µM.

What about the MIC ([8]; media BHI) of the same compound?
Its MIC is > 64 µM.

And the MIC ([8]; media MH)?
The MIC was > 256 µM.

What about the MIC [9] of the same compound?
Its MIC is > 256 µM.

What about the MIC [10] of the same compound?
Its MIC is > 256 µM.

What about the MIC [11] of the same compound?
Its MIC is > 256 µM.

How did the MIC [1] turn out when N#CC(=Cc1cccc([N+](=O)[O-])c1)c1nn(-c2ccccc2)c(-n2cccc2)c1C#N [Compound C8, 3-[1-cyano-2-(3-nitrophenyl)vinyl]-1-phenyl-5-(1H-pyrrol-1-yl)-1H-pyrazole-4-carbonitrile] was run?
The MIC was > 256 µM.

And the MIC [2]?
The MIC was > 64 µM.

What about the MIC [3] of the same compound?
The MIC was > 256 µM.

And the MIC [4]?
The MIC was > 64 µM.

What about the MIC ([5]; media BHI) of the same compound?
The MIC was > 64 µM.

What about the MIC ([5]; media MH) of the same compound?
The MIC was > 256 µM.

And the MIC ([5]; media MH+DFO)?
The MIC was > 256 µM.

What about the MIC ([5]; media MH+DIP) of the same compound?
Its MIC is > 256 µM.

And the MIC ([5]; media MH+DIP+DFO)?
Its MIC is > 256 µM.

And the MIC [6]?
The MIC was > 64 µM.

What about the MIC ([7]; media BHI) of the same compound?
The MIC was > 256 µM.

What about the MIC ([7]; media MH) of the same compound?
The MIC was > 256 µM.

What about the MIC ([8]; media BHI) of the same compound?
Its MIC is > 64 µM.

And the MIC ([8]; media MH)?
The MIC was > 256 µM.

And the MIC [9]?
The MIC was > 256 µM.

And the MIC [10]?
The MIC was > 256 µM.

What about the MIC [11] of the same compound?
Its MIC is > 256 µM.

With N#Cc1ccc(C=NNC(=O)c2cnn(-c3ccc([N+](=O)[O-])cc3)c2C(F)(F)F)cc1 [Compound C10, N'-[(4-cyanophenyl)methylene]-1-(4-nitrophenyl)-5-(trifluoromethyl)-1H-pyrazole-4-carbohydrazide] as the compound, how does the MIC [1] read?
Its MIC is > 256 µM.

What about the MIC [2] of the same compound?
Its MIC is > 64 µM.

And the MIC [3]?
The MIC was > 256 µM.

And the MIC [4]?
Its MIC is > 64 µM.

What about the MIC ([5]; media BHI) of the same compound?
Its MIC is > 64 µM.

What about the MIC ([5]; media MH) of the same compound?
Its MIC is > 256 µM.

And the MIC ([5]; media MH+DFO)?
The MIC was > 256 µM.

And the MIC ([5]; media MH+DIP)?
The MIC was > 256 µM.

What about the MIC ([5]; media MH+DIP+DFO) of the same compound?
The MIC was > 256 µM.

And the MIC [6]?
The MIC was > 64 µM.

And the MIC ([7]; media BHI)?
Its MIC is > 256 µM.

What about the MIC ([7]; media MH) of the same compound?
The MIC was > 256 µM.

What about the MIC ([8]; media BHI) of the same compound?
Its MIC is > 64 µM.

And the MIC ([8]; media MH)?
The MIC was > 256 µM.

What about the MIC [9] of the same compound?
The MIC was > 256 µM.

And the MIC [10]?
The MIC was > 256 µM.

What about the MIC [11] of the same compound?
Its MIC is > 256 µM.

With COc1ccc(NC(=O)CC(CC(=O)O)c2cc(OC)c(OC)c(OC)c2)cc1 (centres unmarked) [Compound C11, 5-(4-methoxyanilino)-5-oxo-3-(3,4,5-trimethoxyphenyl)pentanoic acid] as the compound, how does the MIC [1] read?
Its MIC is > 256 µM.

What about the MIC [2] of the same compound?
The MIC was > 64 µM.

And the MIC [3]?
Its MIC is > 256 µM.

What about the MIC [4] of the same compound?
Its MIC is > 64 µM.

And the MIC ([5]; media BHI)?
Its MIC is > 64 µM.

And the MIC ([5]; media MH)?
Its MIC is > 256 µM.

And the MIC ([5]; media MH+DFO)?
Its MIC is > 256 µM.

What about the MIC ([5]; media MH+DIP) of the same compound?
Its MIC is > 256 µM.

And the MIC ([5]; media MH+DIP+DFO)?
Its MIC is > 256 µM.

And the MIC [6]?
Its MIC is > 64 µM.

What about the MIC ([7]; media BHI) of the same compound?
The MIC was > 256 µM.

What about the MIC ([7]; media MH) of the same compound?
The MIC was > 256 µM.

What about the MIC ([8]; media BHI) of the same compound?
The MIC was > 64 µM.

And the MIC ([8]; media MH)?
Its MIC is > 256 µM.

What about the MIC [9] of the same compound?
The MIC was > 256 µM.

What about the MIC [10] of the same compound?
Its MIC is > 256 µM.

And the MIC [11]?
The MIC was > 256 µM.

How did the MIC [1] turn out when CC1=C(C)CC(C(=O)Nc2ccc(Oc3ccc(Cl)cc3)cc2)C(C(=O)O)C1 (centres unmarked) [Compound C12, 6-{[4-(4-chlorophenoxy)anilino]carbonyl}-3,4-dimethylcyclohex-3-ene-1-carboxylic acid] was run?
The MIC was > 256 µM.

What about the MIC [2] of the same compound?
Its MIC is > 256 µM.

What about the MIC [3] of the same compound?
Its MIC is > 256 µM.

And the MIC [4]?
The MIC was > 256 µM.

And the MIC ([5]; media MH)?
Its MIC is > 256 µM.

And the MIC ([5]; media MH+DFO)?
Its MIC is > 256 µM.

And the MIC ([5]; media MH+DIP)?
Its MIC is > 256 µM.

And the MIC ([5]; media MH+DIP+DFO)?
The MIC was > 256 µM.

And the “Tm shift of CaFADS thermal denaturation” value [12]?
Its value is “neither binder nor inhibitor”.

And the MIC [6]?
Its MIC is > 256 µM.

What about the MIC ([8]; media MH) of the same compound?
The MIC was > 256 µM.

And the MIC [9]?
Its MIC is > 256 µM.

What about the MIC [11] of the same compound?
Its MIC is > 256 µM.

Which results are given for O=C(O)C(=Cc1ccc2c(c1)OCO2)NC(=O)c1ccccc1 [Compound C14, 3-(1,3-benzodioxol-5-yl)-2-(benzoylamino)acrylic acid]?
MIC [1]: > 256 µM; MIC [2]: > 64 µM; MIC [3]: > 256 µM; MIC [4]: > 64 µM; MIC ([5]; media BHI): > 64 µM; MIC ([5]; media MH): > 256 µM; MIC ([5]; media MH+DFO): > 256 µM; MIC ([5]; media MH+DIP): > 256 µM; MIC ([5]; media MH+DIP+DFO): > 256 µM; MIC [6]: > 64 µM; MIC ([7]; media BHI): > 256 µM; MIC ([7]; media MH): > 256 µM; MIC ([8]; media BHI): > 64 µM; MIC ([8]; media MH): > 256 µM; MIC [9]: > 256 µM; MIC [10]: > 256 µM; MIC [11]: > 256 µM

For NS(=O)(=O)c1ccc(NC(=O)CC(CC(=O)O)c2ccccc2)cc1 (centres unmarked) [Compound C17, 5-[4-(aminosulfonyl)anilino]-5-oxo-3-phenylpentanoic acid], which MIC [1] is on record?
The MIC was > 256 µM.

And the MIC [2]?
Its MIC is > 256 µM.

What about the MIC [3] of the same compound?
Its MIC is > 256 µM.

And the MIC [4]?
Its MIC is > 256 µM.

What about the MIC ([5]; media MH) of the same compound?
The MIC was > 256 µM.

And the MIC ([5]; media MH+DFO)?
The MIC was > 256 µM.

What about the MIC ([5]; media MH+DIP) of the same compound?
Its MIC is > 256 µM.

What about the MIC ([5]; media MH+DIP+DFO) of the same compound?
The MIC was > 256 µM.

And the MIC [6]?
Its MIC is > 256 µM.

And the MIC ([8]; media MH)?
The MIC was > 256 µM.

What about the MIC [9] of the same compound?
Its MIC is > 256 µM.

And the MIC [11]?
Its MIC is > 256 µM.

Cc1ccc(OCC2SCCN2C(=O)c2c(-c3c(Cl)cccc3Cl)noc2C)c([N+](=O)[O-])c1 (centres unmarked) [Compound C25, [3-(2,6-dichlorophenyl)-5-methylisoxazol-4-yl]{2-[(4-methyl-2-nitrophenoxy)methyl]-1,3-thiazolan-3-yl}methanone] was tested. Which MIC [1] did it give?
Its MIC is > 256 µM.

And the MIC [2]?
The MIC was > 256 µM.

What about the MIC [3] of the same compound?
The MIC was > 256 µM.

What about the MIC [4] of the same compound?
The MIC was > 256 µM.

What about the MIC ([5]; media MH) of the same compound?
Its MIC is > 256 µM.

And the MIC ([5]; media MH+DFO)?
The MIC was > 256 µM.

And the MIC ([5]; media MH+DIP)?
The MIC was > 256 µM.

What about the MIC ([5]; media MH+DIP+DFO) of the same compound?
The MIC was > 256 µM.

And the MIC [6]?
Its MIC is > 256 µM.

What about the MIC ([8]; media MH) of the same compound?
The MIC was > 256 µM.

What about the MIC [9] of the same compound?
Its MIC is > 256 µM.

What about the MIC [11] of the same compound?
The MIC was > 256 µM.
